The source of these data is patent publication US20230143612A1 (Arbutus Biopharma Corporation, priority 2020, published 2023).

This assay addresses PD-L1 His protein / PD-1 Fc protein (Homo sapiens, UniProt Q9NZQ7). Kind of assay: HTRF Assay (PD-1/PD-L1 interaction). The conditions noted are these: PD-L1 His 6 nM, PD-1 Fc 6 nM. The format is binding. Summed up:
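HTRF: PD-L1 His (6 nM final), compound (3-fold dilutions, 20 μM to 0.001 μM final) and PD-1 Fc (6 nM final) preincubated 15 min at room temperature. Anti-human IgG-XL665 and anti-6HIS Tb cryptate (mixed at 6.7 nM and 0.35 nM) then added for 1 h at room temperature before reading.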

Chain of PD-L1 His protein / PD-1 Fc protein (Q9NZQ7 19-238 limits assumed): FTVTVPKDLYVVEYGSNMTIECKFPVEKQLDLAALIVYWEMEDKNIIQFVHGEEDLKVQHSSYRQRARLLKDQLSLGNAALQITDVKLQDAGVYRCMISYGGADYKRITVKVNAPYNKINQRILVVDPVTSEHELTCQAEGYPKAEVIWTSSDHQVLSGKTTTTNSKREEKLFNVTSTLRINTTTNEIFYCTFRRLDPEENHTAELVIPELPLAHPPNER

Usually IC50 stands for the concentration needed to halve the response being measured. A higher IC50 goes with a need for much substance. Take `COc1nc(-c2cccc(-c3cccc(-c4ccn5c(=O)c(CN6CC(C(C)(C)O)C6)cnc5c4)c3Cl)c2Cl)ccc1CNC[C@@H]1CCC(=O)N1` [Example 111, (S)-8-(2,2′-Dichloro-3′-(6-methoxy-5-((((5-oxopyrrolidin-2-yl)methyl)amino)methyl)pyridin-2-yl)-[1,1′-biphenyl]-3-yl)-3-((3-(2-hydroxypropan-2-yl)azetidin-1-yl)methyl)-4H-pyrido[1,2-a]pyrimidin-4-one]: the 50% inhibitory concentration (IC50) was 6.5 nM.

In turn, `COc1nc(-c2cccc(-c3cccc(-c4ccn5c(=O)c(CNC[C@@H]6CCC(=O)N6)cnc5c4)c3Cl)c2Cl)ccc1CN1CC(C(C)(C)O)C1` [Example 112, (S)-8-(2,2′-Dichloro-3′-(5-((3-(2-hydroxypropan-2-yl)azetidin-1-yl)methyl)-6-methoxypyridin-2-yl)-[1,1′-biphenyl]-3-yl)-3-((((5-oxopyrrolidin-2-yl)methyl)amino)methyl)-4H-pyrido[1,2-a]pyrimidin-4-one] had an IC50 of 2.9 nM.

In turn, `COC(=O)[C@H](CO)NCc1ccc(-c2cccc(-c3cccc(-c4ccn5c(=O)c(CNC[C@@H]6CCC(=O)N6)cnc5c4)c3Cl)c2Cl)nc1OC` [Example 113, Methyl ((6-(2,2′-dichloro-3′-(4-oxo-3-(((((S)-5-oxopyrrolidin-2-yl)methyl)amino)methyl)-4H-pyrido[1,2-a]pyrimidin-8-yl)-[1,1′-biphenyl]-3-yl)-2-methoxypyridin-3-yl)methyl)-L-serinate] displayed a 50% inhibitory concentration (IC50) of 54 nM.

`COc1nc(-c2cccc(-c3cccc(-c4ccn5c(=O)c(CNC[C@@H]6CCC(=O)N6)cnc5c4)c3Cl)c2Cl)ccc1CN[C@@H](CO)C(=O)O` [Example 114, ((6-(2,2′-Dichloro-3′-(4-oxo-3-(((((S)-5-oxopyrrolidin-2-yl)methyl)amino)methyl)-4H-pyrido[1,2-a]pyrimidin-8-yl)-[1,1′-biphenyl]-3-yl)-2-methoxypyridin-3-yl)methyl)-L-serine] displayed an IC50 of 0.6 nM.

Take `COc1nc(-c2cccc(-c3cccc(-c4ccn5c(=O)c(CNC[C@@H]6CCC(=O)N6)cnc5c4)c3Cl)c2Cl)ccc1CNC1(C(=O)O)CC1` [Example 115, (S)-1-(((6-(2,2′-Dichloro-3′-(4-oxo-3-((((5-oxopyrrolidin-2-yl)methyl)amino)methyl)-4H-pyrido[1,2-a]pyrimidin-8-yl)-[1,1′-biphenyl]-3-yl)-2-methoxypyridin-3-yl)methyl)amino)cyclopropane-1-carboxylic acid]: half-maximal inhibition (IC50) required 2.5 nM.

Take `COc1nc(-c2cccc(-c3cccc(-c4ccn5c(=O)c(CN6CC[C@H](C(=O)O)C6)cnc5c4)c3Cl)c2Cl)cnc1CNC[C@@H]1CCC(=O)N1` [Example 116, (S)-1-((8-(2,2′-Dichloro-3′-(6-methoxy-5-(((((S)-5-oxopyrrolidin-2-yl)methyl)amino)methyl)pyrazin-2-yl)-[1,1′-biphenyl]-3-yl)-4-oxo-4H-pyrido[1,2-a]pyrimidin-3-yl)methyl)pyrrolidine-3-carboxylic acid]: the IC50 is 0.3 nM. Against the preceding compound, the IC50 is about 8.3-fold lower.

For `COc1nc(-c2cccc(-c3cccc(-c4ccn5c(=O)c(CN6CC(C(=O)O)C6)cnc5c4)c3Cl)c2Cl)cnc1CNC[C@@H]1CCC(=O)N1` [Example 117, (S)-1-((8-(2,2′-Dichloro-3′-(6-methoxy-5-((((5-oxopyrrolidin-2-yl)methyl)amino)methyl)pyrazin-2-yl)-[1,1′-biphenyl]-3-yl)-4-oxo-4H-pyrido[1,2-a]pyrimidin-3-yl)methyl)azetidine-3-carboxylic acid], the IC50 is 0.4 nM.

Compound `COc1nc(-c2cccc(-c3cccc(-c4ccn5c(=O)c(CNC[C@@H]6CCC(=O)N6)cnc5c4)c3Cl)c2Cl)ccc1CN1CC[C@H](C(=O)O)C1` [Example 118, (S)-1-((6-(2,2′-Dichloro-3′-(4-oxo-3-(((((S)-5-oxopyrrolidin-2-yl)methyl)amino)methyl)-4H-pyrido[1,2-a]pyrimidin-8-yl)-[1,1′-biphenyl]-3-yl)-2-methoxypyridin-3-yl)methyl)pyrrolidine-3-carboxylic acid] came in with an IC50 of 0.2 nM.

Compound `COc1nc(-c2cccc(-c3cccc(-c4ccn5c(=O)c(CNC[C@@H]6CCC(=O)N6)cnc5c4)c3Cl)c2Cl)ccc1CN1CC(C(=O)O)C1` [Example 119, (S)-1-((6-(2,2′-Dichloro-3′-(4-oxo-3-((((5-oxopyrrolidin-2-yl)methyl)amino)methyl)-4H-pyrido[1,2-a]pyrimidin-8-yl)-[1,1′-biphenyl]-3-yl)-2-methoxypyridin-3-yl)methyl)azetidine-3-carboxylic acid] came in with an IC50 of 0.3 nM. This IC50 and that of the compound before are within 1.5-fold of each other.

`COc1nc(-c2cccc(-c3cccc(-c4ccn5c(=O)c(CNC6(C(=O)O)CC6)cnc5c4)c3Cl)c2Cl)ccc1CNC[C@@H]1CCC(=O)N1` [Example 120, (S)-1-(((8-(2,2′-Dichloro-3′-(6-methoxy-5-((((5-oxopyrrolidin-2-yl)methyl)amino)methyl)-pyridin-2-yl)-[1,1′-biphenyl]-3-yl)-4-oxo-4H-pyrido[1,2-a]pyrimidin-3-yl)methyl)amino)-cyclopropane-1-carboxylic acid] had an IC50 of 0.4 nM.

`COC(=O)C12CCC(CC1)N(Cc1ccc(-c3cccc(-c4cccc(-c5ccn6c(=O)c(CNC[C@@H]7CCC(=O)N7)cnc6c5)c4Cl)c3Cl)nc1OC)C2` [Example 121, Methyl (S)-2-((6-(2,2′-dichloro-3′-(4-oxo-3-((((5-oxopyrrolidin-2-yl)methyl)amino)methyl)-4H-pyrido[1,2-a]pyrimidin-8-yl)-[1,1′-biphenyl]-3-yl)-2-methoxypyridin-3-yl)methyl)-2-azabicyclo[2.2.2]octane-4-carboxylate]: the midpoint of inhibition, the IC50, lay at 1 nM.

With `COc1nc(-c2cccc(-c3cccc(-c4ccn5c(=O)c(CNC[C@@H]6CCC(=O)N6)cnc5c4)c3Cl)c2Cl)ccc1CN1CC2(C(=O)O)CCC1CC2` [Example 122, (S)-2-((6-(2,2′-Dichloro-3′-(4-oxo-3-((((5-oxopyrrolidin-2-yl)methyl)amino)methyl)-4H-pyrido[1,2-a]pyrimidin-8-yl)-[1,1′-biphenyl]-3-yl)-2-methoxypyridin-3-yl)methyl)-2-azabicyclo[2.2.2]octane-4-carboxylic acid], half-maximal inhibition (IC50) was put at 0.8 nM.

`COc1nc(-c2cccc(-c3cccc(-c4cnc5c(Cl)c(CNC[C@@H]6CCC(=O)N6)sc5c4)c3Cl)c2Cl)ccc1CNC[C@@H]1CCC(=O)N1` [Example 123, (S)-5-((((3-Chloro-6-(2,2′-dichloro-3′-(6-methoxy-5-(((((S)-5-oxopyrrolidin-2-yl)methyl)amino)methyl)pyridin-2-yl)-[1,1′-biphenyl]-3-yl)thieno[3,2-b]pyridin-2-yl)methyl)amino)methyl)pyrrolidin-2-one] returned an IC50 of 0.2 nM.

In the case of `COC(=O)CNCc1ccc(-c2cccc(-c3cccc(-c4ccn5c(=O)c(CNC[C@@H]6CCC(=O)N6)cnc5c4)c3Cl)c2Cl)nc1OC` [Example 124, Methyl (S)-((6-(2,2′-dichloro-3′-(4-oxo-3-((((5-oxopyrrolidin-2-yl)methyl)amino)methyl)-4H-pyrido[1,2-a]pyrimidin-8-yl)-[1,1′-biphenyl]-3-yl)-2-methoxypyridin-3-yl)methyl)glycinate], the IC50 turned out to be 3.8 nM.

Compound `COc1nc(-c2cccc(-c3cccc(-c4ccn5c(=O)c(CNC[C@@H]6CCC(=O)N6)cnc5c4)c3Cl)c2Cl)ccc1CNCC(=O)O` [Example 125, (S)-((6-(2,2′-Dichloro-3′-(4-oxo-3-((((5-oxopyrrolidin-2-yl)methyl)amino)methyl)-4H-pyrido[1,2-a]pyrimidin-8-yl)-[1,1′-biphenyl]-3-yl)-2-methoxypyridin-3-yl)methyl)glycine] yielded an IC50 of 0.7 nM.

Take `COc1nc(-c2cccc(-c3cccc(-c4ccn5c(=O)c(CNC[C@@H](O)CC(=O)O)cnc5c4)c3Cl)c2Cl)ccc1CNC[C@@H]1CCC(=O)N1` [Example 126, (S)-4-(((8-(2,2′-Dichloro-3′-(6-methoxy-5-(((((S)-5-oxopyrrolidin-2-yl)methyl)amino)methyl)pyridin-2-yl)-[1,1′-biphenyl]-3-yl)-4-oxo-4H-pyrido[1,2-a]pyrimidin-3-yl)methyl)amino)-3-hydroxybutanoic acid]: inhibition was half-maximal at 0.4 nM (IC50).

Compound `COc1nc(-c2cccc(-c3cccc(-c4ccn5c(=O)c(CN6CC7(C(=O)O)CCC6CC7)cnc5c4)c3Cl)c2Cl)ccc1CNC[C@@H]1CCC(=O)N1` [Example 127, (S)-2-((8-(2,2′-Dichloro-3′-(6-methoxy-5-((((5-oxopyrrolidin-2-yl)methyl)amino)methyl)pyridin-2-yl)-[1,1′-biphenyl]-3-yl)-4-oxo-4H-pyrido[1,2-a]pyrimidin-3-yl)methyl)-2-azabicyclo[2.2.2]octane-4-carboxylic acid] came in with an IC50 of 0.3 nM. This IC50 and that of the compound before are within 1.5-fold of each other.

Regarding `COc1nc(-c2cccc(-c3cccc(-c4ccn5c(=O)c(CN6CCC[C@H]6C(=O)O)cnc5c4)c3Cl)c2Cl)ccc1CNC[C@@H]1CCC(=O)N1` [Example 128, ((8-(2,2′-Dichloro-3′-(6-methoxy-5-(((((S)-5-oxopyrrolidin-2-yl)methyl)amino)methyl)pyridin-2-yl)-[1,1′-biphenyl]-3-yl)-4-oxo-4H-pyrido[1,2-a]pyrimidin-3-yl)methyl)-L-proline], inhibition was half-maximal at 0.2 nM (IC50).

Turning to `COc1nc(-c2cccc(-c3cccc(-c4ccn5c(=O)c(CN6CCCC[C@H]6C(=O)O)cnc5c4)c3Cl)c2Cl)ccc1CNC[C@@H]1CCC(=O)N1` [Example 129, (S)-1-((8-(2,2′-Dichloro-3′-(6-methoxy-5-(((((S)-5-oxopyrrolidin-2-yl)methyl)amino)methyl)pyridin-2-yl)-[1,1′-biphenyl]-3-yl)-4-oxo-4H-pyrido[1,2-a]pyrimidin-3-yl)methyl)piperidine-2-carboxylic acid], the half-inhibitory concentration (IC50) was 0.3 nM.

In turn, `COc1nc(-c2cccc(-c3cccc(-c4ccn5c(=O)c(CN6CCC[C@H](C(=O)O)C6)cnc5c4)c3Cl)c2Cl)ccc1CNC[C@@H]1CCC(=O)N1` [Example 130, (S)-1-((8-(2,2′-Dichloro-3′-(6-methoxy-5-(((((S)-5-oxopyrrolidin-2-yl)methyl)amino)methyl)pyridin-2-yl)-[1,1′-biphenyl]-3-yl)-4-oxo-4H-pyrido[1,2-a]pyrimidin-3-yl)methyl)piperidine-3-carboxylic acid] registered an IC50 of 0.3 nM.
